From article PMC11537802, “The Neuroprotection of 1,2,4‐Triazole Derivative by Inhibiting Inflammation and Protecting BBB Integrity in Acute Ischemic Stroke” (CNS Neuroscience & Therapeutics, 2024)

Legend:
Assay type in all cases: in vivo, Sprague–Dawley rats
MCAO rats [1] = assay: brain water content (dry/wet weight) in MCAO rats; conditions: 15 mg/kg (SYS18 high dose; edaravone), 48 h reperfusion, model 83.18% ± 0.71%
Method: (§1) Rats were randomly divided into five groups: Sham group (n = 24), rats received sham operation; MCAO model group (n = 30); SYS18 low‐dose group (7.5 mg/kg, n = 30); SYS18 high‐dose group (15 mg/kg, n = 30); and Positive control group rats were intraperitoneally injected with edaravone (15 mg/kg, n = 30). The tested compound was dissolved in 20% polyoxyethylene castor oil and was administered 0.5 h before operation and 6, 12, 24, and 36 h after reperfusion. The measurements were carried out 48 h after the operation. Ten animals in each group were used to measure brain water content, and 10 animals in each group were used to detect Evans blue content in brain tissue. Ten animals in each group were used for determination of biochemical indicators and pathological observations and WB experiments.
The brain water content was evaluated by measuring difference between the dry and wet weights of brains. Briefly, after rats were sacrificed after 48 h of reperfusion, the brains were measured immediately to obtain the wet weights. Then, the brains were drying in a constant temperature oven at 100°C for 24 h, followed by measurements to obtain the dry weights. Brain water content was calculated according to the following formula, brain water content = 100% × (wet weight − dry weight)/wet weight.

SOD = assay: serum SOD in MCAO rats (kit); conditions: 15 mg/kg, 48 h
Method: as §1
(§2) Blood sample was collected at 48 h after MCAO. After centrifugation at 4°C × 12,000 g for 10 min, the clear supernatant was stored at −80°C. The components of SOD, MDA, TNF‐α, and IL‐1β in the blood samples were measured according to the instructions of the assay kits.

TNF‐α = assay: serum TNF-α in MCAO rats (ELISA); conditions: 15 mg/kg, 48 h, p < 0.05
Method: as §1, §2

MCAO rats [2] = assay: neurological score (Zea-Longa) in MCAO rats; conditions: 15 mg/kg (SYS18 high dose; edaravone i.p.), 48 h after surgery, model 2.42 ± 0.84, p < 0.01
Excerpt: C57BL/6 mice were randomly assigned to treatment groups by body weight. Operator blind to treatment status of animals. After the mice were anesthetized, a midline cervical incision was made. The left common carotid artery and external carotid artery were isolated and ligated. Arterial clamps were placed at the preparation line and distal end of the internal carotid artery. An incision was made at the bifurcation of the common carotid artery. 4–0 nylon line was inserted to a depth of 17–20 mm. The nylon line entered the internal carotid artery; then, it entered the skull to the anterior cerebral artery and blocked all blood flow sources in the middle cerebral artery. After keeping ischemic for 1 h, the animals were re‐anesthetized and then pulled out the nylon line for about 1 cm to achieve reperfusion for up to 48 h. The wound was disinfected with iodophor, and the skin was sutured. Put them on the electric blanket to maintain the body temperature after the completion of surgery; then, they were returned to cages upon recovery. For the sham group, except that no nylon line is inserted, other steps are the same as above. Sham group and model group were given 20% polyoxyethylene castor oil. Subsequently, the animals were sacrificed, and the serum and brains were collected for a series of subsequent analyses and studies.
Rats were randomly divided into five groups: Sham group (n = 24), rats received sham operation; MCAO model group (n = 30); SYS18 low‐dose group (7.5 mg/kg, n = 30); SYS18 high‐dose group (15 mg/kg, n = 30); and Positive control group rats were intraperitoneally injected with edaravone (15 mg/kg, n = 30). […]
According to Zea‐Longa 4‐point scoring criteria, the animals were scored for neurological function at 48 h after surgery. […] And the degree of each animal model was scored as follows: 0 point, no symptoms of nerve injury; 1 point, inability to fully extend the forepaw; 2 points, circling laterally; 3 points, tip to the opposite side; 4 points, inability to walk spontaneously and loss of consciousness. […]

IL‐1β = assay: serum IL-1β in MCAO rats (ELISA); conditions: 15 mg/kg, 48 h, p < 0.05
Method: as §1, §2

MCAO rats [3] = assay: blood–brain barrier permeability (Evans blue content in brain) in MCAO rats; conditions: 15 mg/kg (SYS18 high dose; or edaravone positive control), 48 h
Method: as §1
The integrity of the BBB was investigated using Evans blue (EB). Forty‐six hours after reperfusion, rats were injected with EB (4% saline, 4 mL/kg) via the tail vein. Two hours later, rats were anesthetized and perfused with saline through the left ventricle until colorless perfusate. After hydrangea and brainstem were removed, the brains were collected and homogenized. Evans blue was extracted from the brain with N,N‐dimethylformamide. After centrifugation at 3700 rpm for 15 min, the absorbance of supernatant was detected at 620 nm wavelength.

CC1=NN(c2ccccc2)C(=O)C1 [edaravone, reference compound]
brain water content (MCAO rats [1]): 81.13% ± 1.98%
SOD level in serum vs model group (SOD): could improve SOD level in serum
TNF-α in serum vs model group (TNF‐α): significantly decreased
neurological score (MCAO rats [2]): 1.50 ± 0.61
IL-1β in serum vs model group (IL‐1β): significantly decreased
Evans blue content in brain tissue (MCAO rats [3]): 6.20 ± 2.76 µg/g
